What was measured:
Assay in all cases: combination Emax (second highest fraction inhibited in the dose matrix, 72 h); higher = more inhibition; extreme values may be limits of the assay
[1] = system: SAT (Head and Neck Carcinoma)
Method in brief: (§1)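 After 24 hours at 37°C and 5% CO2 in 1536-well plates, cells in DMEM/F12 or RPMI plus 10% FBS received two-drug dose matrices for 72 hours. Viability came from CellTiter-Glo 2.0 luminescence and was scaled as inhibition, anchored at 0 by vehicle wells and at 1 by blank wells. Combination Emax is taken as the second-highest inhibition in the matrix, and Bliss excess as the observed combination effect less EA + EB − EA·EB, with EA and EB the single-agent effects.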

AM-38 (Glioblastoma) = system: AM-38 (Glioblastoma)
Method in brief: as §1

ES6 (Ewing's Sarcoma) = system: ES6 (Ewing's Sarcoma)
Method in brief: as §1

[2] = system: RCC-JW (Kidney Carcinoma)
Method in brief: as §1

[3] = system: SKG-IIIa (Cervical Carcinoma)
Method in brief: as §1

[4] = system: NCI-H1341 (Small Cell Lung Carcinoma)
Method in brief: as §1

[5] = system: SUP-M2 (T-Cell Non-Hodgkin's Lymphoma)
Method in brief: as §1

[6] = system: C-33-A (Cervical Carcinoma)
Method in brief: as §1

[7] = system: IA-LM (Non-Small Cell Lung Carcinoma)
Method in brief: as §1

[8] = system: P30-OHK (B-Lymphoblastic Leukemia)
Method in brief: as §1

[9] = system: LCLC-103H (Non-Small Cell Lung Carcinoma)
Method in brief: as §1

[10] = system: SiHa (Cervical Carcinoma)
Method in brief: as §1

GAK (Melanoma) = system: GAK (Melanoma)
Method in brief: as §1

[11] = system: CL-11 (Colorectal Carcinoma)
Method in brief: as §1

[12] = system: COR-L88 (Small Cell Lung Carcinoma)
Method in brief: as §1

[13] = system: NCI-H596 (Other Solid Carcinomas)
Method in brief: as §1

[14] = system: NCI-H1876 (Small Cell Lung Carcinoma)
Method in brief: as §1

NCI-H2373 (Mesothelioma) = system: NCI-H2373 (Mesothelioma)
Method in brief: as §1

IST-MEL1 (Melanoma) = system: IST-MEL1 (Melanoma)
Method in brief: as §1

[15] = system: LS-1034 (Colorectal Carcinoma)
Method in brief: as §1

NC1(C(=O)N[C@@H](CCO)c2ccc(Cl)cc2)CCN(c2ncnc3[nH]ccc23)CC1 [Capivasertib] + CC(=O)c1c(C)c2cnc(Nc3ccc(N4CCNCC4)cn3)nc2n(C2CCCC2)c1=O [Palbociclib] (first compound max 10 µM, 7x7, partner max 10 µM)
combination Emax [1]: 0.662 | combination Emax (AM-38 (Glioblastoma)): 0.473 | combination Emax (ES6 (Ewing's Sarcoma)): 0.46 | combination Emax [2]: 0.449 | combination Emax [3]: 0.27 | combination Emax [4]: 0.506 | combination Emax [5]: 0.89 | combination Emax [6]: 0.679 | combination Emax [7]: 0.206 | combination Emax [8]: 0.56 | combination Emax [9]: 0.448 | combination Emax [10]: 0.252 | combination Emax (GAK (Melanoma)): 0.474 | combination Emax [11]: 0.358 | combination Emax [12]: 0.226 | combination Emax [13]: 0.596 | combination Emax [14]: 0.253 | combination Emax (NCI-H2373 (Mesothelioma)): 0.538 | combination Emax (IST-MEL1 (Melanoma)): 0.48 | combination Emax [15]: 0.499

NC1(C(=O)N[C@@H](CCO)c2ccc(Cl)cc2)CCN(c2ncnc3[nH]ccc23)CC1 [Capivasertib] + CC(C)n1c(=O)n(C)c2cnc3cc(F)c(-c4ccc(OCCCN5CCCCC5)nc4)cc3c21 [AZD1390] (first compound max 10 µM, 7x7, partner max 0.3 µM)
combination Emax [1]: 0.555 | combination Emax (AM-38 (Glioblastoma)): 0.17 | combination Emax (ES6 (Ewing's Sarcoma)): 0.349 | combination Emax [2]: 0.387 | combination Emax [3]: 0.244 | combination Emax [4]: 0.532 | combination Emax [5]: 0.19 | combination Emax [6]: 0.675 | combination Emax [7]: 0.263 | combination Emax [8]: 0.176 | combination Emax [9]: 0.267 | combination Emax [10]: 0.241 | combination Emax (GAK (Melanoma)): 0.219 | combination Emax [11]: 0.223 | combination Emax [12]: 0.0851 | combination Emax [13]: 0.542 | combination Emax [14]: 0.172 | combination Emax (NCI-H2373 (Mesothelioma)): 0.545 | combination Emax (IST-MEL1 (Melanoma)): 0.359 | combination Emax [15]: 0.322

NC1(C(=O)N[C@@H](CCO)c2ccc(Cl)cc2)CCN(c2ncnc3[nH]ccc23)CC1 [Capivasertib] + CCN(CCO)CCCOc1ccc2c(Nc3cc(CC(=O)Nc4cccc(F)c4)[nH]n3)ncnc2c1 [AZD2811] (first compound max 10 µM, 7x7, partner max 1 µM)
combination Emax [1]: 0.502 | combination Emax (AM-38 (Glioblastoma)): 0.285 | combination Emax (ES6 (Ewing's Sarcoma)): 0.418 | combination Emax [2]: 0.358 | combination Emax [3]: 0.374 | combination Emax [4]: 0.655 | combination Emax [5]: 0.992 | combination Emax [6]: 0.712 | combination Emax [7]: 0.304 | combination Emax [8]: 0.886 | combination Emax [9]: 0.413 | combination Emax [10]: 0.299 | combination Emax (GAK (Melanoma)): 0.219 | combination Emax [11]: 0.272 | combination Emax [12]: 0.253 | combination Emax [13]: 0.564 | combination Emax [14]: 0.941 | combination Emax (NCI-H2373 (Mesothelioma)): 0.491 | combination Emax (IST-MEL1 (Melanoma)): 0.459 | combination Emax [15]: 0.302

NC1(C(=O)N[C@@H](CCO)c2ccc(Cl)cc2)CCN(c2ncnc3[nH]ccc23)CC1 [Capivasertib] + COc1nnc2ccc(N3CCC(c4ccc(OCCN5CCN(C)C(=O)[C@H]5C)cc4)CC3)nn12 [AZD5153] (first compound max 10 µM, 7x7, partner max 1 µM)
combination Emax [1]: 0.811 | combination Emax (AM-38 (Glioblastoma)): 0.448 | combination Emax (ES6 (Ewing's Sarcoma)): 0.518 | combination Emax [2]: 0.601 | combination Emax [3]: 0.43 | combination Emax [4]: 0.851 | combination Emax [5]: 0.915 | combination Emax [6]: 0.779 | combination Emax [7]: 0.317 | combination Emax [8]: 1 | combination Emax [9]: 0.559 | combination Emax [10]: 0.644 | combination Emax (GAK (Melanoma)): 0.376 | combination Emax [11]: 0.688 | combination Emax [12]: 0.496 | combination Emax [13]: 0.639 | combination Emax [14]: 0.579 | combination Emax (NCI-H2373 (Mesothelioma)): 0.591 | combination Emax (IST-MEL1 (Melanoma)): 0.451 | combination Emax [15]: 0.499

NC1(C(=O)N[C@@H](CCO)c2ccc(Cl)cc2)CCN(c2ncnc3[nH]ccc23)CC1 [Capivasertib] + C[C@@H]1COCCN1C2=NC(=NC(=C2)C3(CC3)[S@](=N)(=O)C)C4=C5C=CNC5=NC=C4 [AZD6738] (first compound max 10 µM, 7x7, partner max 10 µM)
combination Emax [1]: 0.579 | combination Emax (AM-38 (Glioblastoma)): 0.7 | combination Emax (ES6 (Ewing's Sarcoma)): 0.667 | combination Emax [2]: 0.635 | combination Emax [3]: 0.5 | combination Emax [4]: 0.928 | combination Emax [5]: 1 | combination Emax [6]: 0.946 | combination Emax [7]: 0.324 | combination Emax [8]: 0.936 | combination Emax [9]: 0.524 | combination Emax [10]: 0.413 | combination Emax (GAK (Melanoma)): 0.509 | combination Emax [11]: 0.718 | combination Emax [12]: 0.435 | combination Emax [13]: 0.575 | combination Emax [14]: 0.934 | combination Emax (NCI-H2373 (Mesothelioma)): 0.707 | combination Emax (IST-MEL1 (Melanoma)): 0.785 | combination Emax [15]: 0.746

NC1(C(=O)N[C@@H](CCO)c2ccc(Cl)cc2)CCN(c2ncnc3[nH]ccc23)CC1 [Capivasertib] + Cn1cnc2c(F)c(Nc3ccc(Br)cc3Cl)c(C(=O)NOCCO)cc21 [Selumetinib] (first compound max 10 µM, 7x7, partner max 10 µM)
combination Emax [1]: 0.677 | combination Emax (AM-38 (Glioblastoma)): 0.675 | combination Emax (ES6 (Ewing's Sarcoma)): 0.434 | combination Emax [2]: 0.369 | combination Emax [3]: 0.435 | combination Emax [4]: 0.728 | combination Emax [5]: 0.507 | combination Emax [6]: 0.803 | combination Emax [7]: 0.374 | combination Emax [8]: 0.186 | combination Emax [9]: 0.389 | combination Emax [10]: 0.233 | combination Emax (GAK (Melanoma)): 0.757 | combination Emax [11]: 0.8 | combination Emax [12]: 0.257 | combination Emax [13]: 0.575 | combination Emax [14]: 0.239 | combination Emax (NCI-H2373 (Mesothelioma)): 0.664 | combination Emax (IST-MEL1 (Melanoma)): 0.584 | combination Emax [15]: 0.657

Cc1nc(Nc2ncc(C(=O)Nc3c(C)cccc3Cl)s2)cc(N2CCN(CCO)CC2)n1 [Dasatinib] + CC(=O)Nc1cccc(-n2c(=O)n(C3CC3)c(=O)c3c(Nc4ccc(I)cc4F)n(C)c(=O)c(C)c32)c1 [Trametinib] (first compound max 2 µM, 7x7, partner max 1 µM)
combination Emax [1]: 0.826 | combination Emax (AM-38 (Glioblastoma)): 0.713 | combination Emax (ES6 (Ewing's Sarcoma)): 0.439 | combination Emax [2]: 0.859 | combination Emax [3]: 0.5 | combination Emax [4]: 0.425 | combination Emax [5]: 0.126 | combination Emax [6]: 0.642 | combination Emax [7]: 0.654 | combination Emax [8]: 0.202 | combination Emax [9]: 0.326 | combination Emax [10]: 0.329 | combination Emax (GAK (Melanoma)): 0.788 | combination Emax [11]: 0.961 | combination Emax [12]: 0.2 | combination Emax [13]: 0.607 | combination Emax [14]: 0.165 | combination Emax (NCI-H2373 (Mesothelioma)): 0.391 | combination Emax (IST-MEL1 (Melanoma)): 0.793 | combination Emax [15]: 0.861

Reference: the supplement of paper PMC11061612
